# Test results reported in patent US20080118979A1, “Methods of regulating expression of genes or of gene products using substituted tetracycline compounds” (Paratek Pharmaceuticals, Inc., priority 2006, published 2008).
# Experiments:
# [1] = test system: tetR, luxCDABE operon under the regulation of the tetA promotor/operator; experiment: JE305K+pTetLux1 tet detection system (Klux); format: cell-based
# Description: In another embodiment, a tetracycline compound of the invention can be used to regulate transcription of a gene or gene product under the control of a native Tet operator and in the presence of a native TetR in a cell. In one embodiment, the invention pertains to such a cell. For example, JE305K is a strain that has disrupted acrB and waaP genes and comprises a plasmid which contains tetR, and the luxCDABE operon (from P. luminescens) under the regulation of the tetA promotor/operator.
# The substituted tetracycline compounds were examined in a dose response analysis using the JE305K+pTetLux1 tet detection system. JE305K is a strain that has disrupted acrB and waaP genes. pTetLux1 is a plasmid which contains tetR, and has the luxCDABE operon (from P. luminescens) under the regulation of the tetA promotor/operator. The plasmid was obtained from the University of Turku, Finland.
# rtTA2-MT2 = experiment: rtTA-mediated gene activation, luciferase positive cell line MT2; format: cell-based
# Description: FIGS. 2A-2D show a comparison of doxycycline and 9-t-butyl doxcycline in 34R and MT2 rtTA mutants. FIGS. 2A and 2B show the effect of doxycyline on 34R and MT2 mutants, respectively. FIGS. 2C and 2D show the effect of 9-t-butyl doxycycline on 34R and MT2 mutants, respectively.
# [2] = test system: transactivator fusion protein; settings: as demonstrated in U.S. Pat. No. 5,789,156; cited from earlier work
# [3] = Mansuy and Bujard Curr. Op. Neurobiol. 10:593-96; cited from earlier work
molecule,measurement,setting,value
CCCC#Cc1ccc(O)c2c1C[C@H]1C[C@H]3[C@H](N(C)C)C(O)=C(C(N)=O)C(=O)[C@@]3(O)C(O)=C1C2=O,activity in the JE305K+pTetLux1 assay,[1],active
5-phenylcarbamate doxcycline,activation of rtTA2s-M2 compared with doxycycline,rtTA2-MT2,two fold better activator
Cc1c2c(c(O)c3c(O)cccc13)C(=O)[C@]1(O)C(=O)C(C(N)=O)=C(O)[C@@H](N(C)C)[C@@H]1C2 [anhydrotetracycline],strength as inducing agent,[2],strong inducing agents
C[C@H]1c2cccc(O)c2C(=O)C2=C(O)[C@]3(O)C(=O)C(C(N)=O)=C(O)[C@@H](N(C)C)[C@@H]3[C@@H](O)[C@@H]21 [doxycycline],penetration of the blood-brain barrier,[3],limited penetration of the blood-brain barrier
